Earlier results in patent US4946853A, “Method for the treatment of withdrawal symptoms associated with smoking cessation and preparations for use in said method” (priority 1987, dated 1990).

Tests used:
[1] = oral nicotine administration
[2] = within one hour of first smoking; 60 min
[3] = in vivo

## CN1CCCC1c1cccnc1 (stereo not drawn) [nicotine]
[1]
  gastrointestinal upsets: susceptibility of the patient to gastrointestinal upsets
[2]
  normal plasma trough level associated with usual smoking: 5 to 15 ng/mL
[3]
  absorption by the percutaneous route: high degree of absorption
